Assay results as given in patent publication US20250179061A1 (SIRONAX LTD., priority 2022, published 2025).

Each compound was assayed on HT-29 cells (assay: HT-29 necroptosis cell viability assay (TNF-α/SMAC mimetic/zVAD-FMK, CellTiter-Glo)). Details: Homo sapiens, HT-29, HT-29 necroptosis cell viability assay; class symbols for IC50; read-out: Activity.
Format: cell-based
Outline: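 HT-29 cells (~5,000/well, overnight) in FBS-free McCoy's 5A with TNF-α 10 ng/ml, SMAC mimetic 6 μM and zVAD-FMK 10 μM plus 10-point 1:3 compound titration, 20 h at 37°C. ATP measured by CellTiter-Glo luminescence; IC50 as geometric mean of duplicates.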

| Structure (SMILES) | IC50 |
| --- | --- |
| Cc1nc(C2CC(C(N)=O)C2)sc1Oc1ccc(-n2ncn(Cc3c(F)cccc3F)c2=O)cc1F (centres unmarked) [Example 113, 3-(5-(4-(4-(2,6-difluorobenzyl)-5-oxo-4,5-dihydro-1H-1,2,4-triazol-1-yl)-2-fluorophenoxy)-4-methylthiazol-2-yl)cyclobutane-1-carboxamide] | < 100 nM |
| Cc1nc(C2(O)COC2)sc1Oc1ccc(-n2nc3n(c2=O)[C@H](c2ccccc2)CC3)cc1F [Example 114, (S)-2-(3-fluoro-4-((2-(3-hydroxyoxetan-3-yl)-4-methylthiazol-5-yl)oxy)phenyl)-5-phenyl-2,5,6,7-tetrahydro-3H-pyrrolo[2,1-c][1,2,4]triazol-3-one] | < 100 nM |
| Cc1nc(Oc2ccc(-n3ncn(Cc4c(F)cccc4F)c3=O)c(F)c2)n(C)c1C(N)=O [Example 115, 2-(4-(4-(2,6-difluorobenzyl)-5-oxo-4,5-dihydro-1H-1,2,4-triazol-1-yl)-3-fluorophenoxy)-1,4-dimethyl-1H-imidazole-5-carboxamide] | 1000 to 10000 nM |
| Cc1nc(C(F)(F)C(N)=O)sc1Oc1ccc(-n2ncn(Cc3c(F)cccc3F)c2=O)cc1F [Example 116, 2-(5-(4-(4-(2,6-difluorobenzyl)-5-oxo-4,5-dihydro-1H-1,2,4-triazol-1-yl)-2-fluorophenoxy)-4-methylthiazol-2-yl)-2,2-difluoroacetamide] | < 100 nM |
| CCOC(=O)C(=O)c1nc(C)c(Oc2ccc(-n3ncn(Cc4c(F)cccc4F)c3=O)cc2F)s1 [Example 117, ethyl 2-(5-(4-(4-(2,6-difluorobenzyl)-5-oxo-4,5-dihydro-1H-1,2,4-triazol-1-yl)-2-fluorophenoxy)-4-methylthiazol-2-yl)-2-oxoacetate] | 100 to 1000 nM |
| CCOC(=O)C(F)(F)c1nc(C)c(Oc2ccc(-n3ncn(Cc4c(F)cccc4F)c3=O)cc2F)s1 [Example 118, ethyl 2-(5-(4-(4-(2,6-difluorobenzyl)-5-oxo-4,5-dihydro-1H-1,2,4-triazol-1-yl)-2-fluorophenoxy)-4-methylthiazol-2-yl)-2,2-difluoroacetate] | 100 to 1000 nM |
| Cc1nc(C#N)c(Oc2ccc(-n3ncn(Cc4c(F)cccc4F)c3=O)cc2F)s1 [Example 120, 5-(4-(4-(2,6-difluorobenzyl)-5-oxo-4,5-dihydro-1H-1,2,4-triazol-1-yl)-2-fluorophenoxy)-2-methylthiazole-4-carbonitrile] | < 100 nM |
| Cn1cc(C#N)nc1Oc1ccc(-n2ncn(Cc3c(F)cccc3F)c2=O)cc1F [Example 121, 2-(4-(4-(2,6-difluorobenzyl)-5-oxo-4,5-dihydro-1H-1,2,4-triazol-1-yl)-2-fluorophenoxy)-1-methyl-1H-imidazole-4-carbonitrile] | 100 to 1000 nM |
| Cc1nc(C#N)c(C)n1Cc1ccc(-n2ncn(Cc3c(F)cccc3F)c2=O)cc1F [Example 122, 1-(4-(4-(2,6-difluorobenzyl)-5-oxo-4,5-dihydro-1H-1,2,4-triazol-1-yl)-2-fluorobenzyl)-2,5-dimethyl-1H-imidazole-4-carbonitrile] | < 100 nM |
| Cc1nc(C)n(Cc2ccc(-n3ncn(Cc4c(F)cccc4F)c3=O)cc2F)c1C#N [Example 123, 1-(4-(4-(2,6-difluorobenzyl)-5-oxo-4,5-dihydro-1H-1,2,4-triazol-1-yl)-2-fluorobenzyl)-2,4-dimethyl-1H-imidazole-5-carbonitrile] | 100 to 1000 nM |
| Cc1cc(C#N)c(C)n1Cc1ccc(-n2ncn(Cc3c(F)cccc3F)c2=O)cc1F [Example 124, 1-(4-(4-(2,6-difluorobenzyl)-5-oxo-4,5-dihydro-1H-1,2,4-triazol-1-yl)-2-fluorobenzyl)-2,5-dimethyl-1H-pyrrole-3-carbonitrile] | < 100 nM |
| Cc1nc(C#N)cn1Cc1ccc(-n2ncn(Cc3c(F)cccc3F)c2=O)cc1F [Example 125, 1-(4-(4-(2,6-difluorobenzyl)-5-oxo-4,5-dihydro-1H-1,2,4-triazol-1-yl)-2-fluorobenzyl)-2-methyl-1H-imidazole-4-carbonitrile] | < 100 nM |
| Cc1nc(C(C)(C)O)c(Oc2ccc(-n3ncn(Cc4c(F)cccc4F)c3=O)cc2F)s1 [Example 126, 4-(2,6-difluorobenzyl)-2-(3-fluoro-4-((4-(2-hydroxypropan-2-yl)-2-methylthiazol-5-yl)oxy)phenyl)-2,4-dihydro-3H-1,2,4-triazol-3-one] | 100 to 1000 nM |
| COC(=O)c1nc(C)sc1Oc1ccc(-n2ncn(Cc3c(F)cccc3F)c2=O)cc1F [Example 127, methyl 5-(4-(4-(2,6-difluorobenzyl)-5-oxo-4,5-dihydro-1H-1,2,4-triazol-1-yl)-2-fluorophenoxy)-2-methylthiazole-4-carboxylate] | < 100 nM |
| COC(=O)c1ncsc1Oc1ccc(-n2ncn(Cc3c(F)cccc3F)c2=O)cc1F [Example 128, methyl 5-(4-(4-(2,6-difluorobenzyl)-5-oxo-4,5-dihydro-1H-1,2,4-triazol-1-yl)-2-fluorophenoxy)thiazole-4-carboxylate] | 100 to 1000 nM |
| Cc1nc(C(C)(C)O)sc1Oc1ccc(-n2ncn(Cc3ncccc3C#N)c2=O)cc1F [Example 129, 2-((1-(3-fluoro-4-((2-(2-hydroxypropan-2-yl)-4-methylthiazol-5-yl)oxy)phenyl)-5-oxo-1,5-dihydro-4H-1,2,4-triazol-4-yl)methyl)nicotinonitrile] | 100 to 1000 nM |
| Cn1nc(C(C)(C)O)cc1Oc1ccc(-n2nc3n(c2=O)C(c2ccccc2)CC3)cc1F (centres unmarked) [Example 130, 2-(3-fluoro-4-((3-(2-hydroxypropan-2-yl)-1-methyl-1H-pyrazol-5-yl)oxy)phenyl)-5-phenyl-2,5,6,7-tetrahydro-3H-pyrrolo[2,1-c][1,2,4]triazol-3-one] | < 100 nM |
| Cn1cc(C(C)(C)O)nc1Oc1ccc(-n2ncn(Cc3c(F)cccc3F)c2=O)cc1F [Example 131, 4-(2,6-difluorobenzyl)-2-(3-fluoro-4-((4-(2-hydroxypropan-2-yl)-1-methyl-1H-imidazol-2-yl)oxy)phenyl)-2,4-dihydro-3H-1,2,4-triazol-3-one] | > 10000 nM |
| Cn1c(C(C)(C)O)cnc1Oc1ccc(-n2ncn(Cc3c(F)cccc3F)c2=O)cc1F [Example 132, 4-(2,6-difluorobenzyl)-2-(3-fluoro-4-((5-(2-hydroxypropan-2-yl)-1-methyl-1H-imidazol-2-yl)oxy)phenyl)-2,4-dihydro-3H-1,2,4-triazol-3-one] | 1000 to 10000 nM |
| Cc1nc(C(C)(C)O)n(C)c1Oc1ccc(-n2ncn(Cc3c(F)cccc3F)c2=O)cc1F [Example 133, 4-(2,6-difluorobenzyl)-2-(3-fluoro-4-((2-(2-hydroxypropan-2-yl)-1,4-dimethyl-1H-imidazol-5-yl)oxy)phenyl)-2,4-dihydro-3H-1,2,4-triazol-3-one] | 100 to 1000 nM |
| Cn1nc(C(C)(C)O)cc1Oc1ccc(-n2ncn(Cc3c(F)cccc3F)c2=O)cc1F [Example 134, 4-(2,6-difluorobenzyl)-2-(3-fluoro-4-((3-(2-hydroxypropan-2-yl)-1-methyl-1H-pyrazol-5-yl)oxy)phenyl)-2,4-dihydro-3H-1,2,4-triazol-3-one] | < 100 nM |
| Cc1nc(C(C)(C)O)c(C)n1Cc1ccc(-n2ncn(Cc3c(F)cccc3F)c2=O)cc1F [Example 135, 4-(2,6-difluorobenzyl)-2-(3-fluoro-4-((4-(2-hydroxypropan-2-yl)-2,5-dimethyl-1H-imidazol-1-yl)methyl)phenyl)-2,4-dihydro-3H-1,2,4-triazol-3-one] | 1000 to 10000 nM |

Same assay, conditions: Homo sapiens; HT-29 cells stimulated with TNF-α (10 ng/ml), SMAC mimetic (6 μM) and zVAD-FMK (10 μM); 20 hours; CellTiter-Glo ATP luminescence; geometric mean IC50 from 10 points; read-out: Activity

| Structure (SMILES) | IC50 |
| --- | --- |
| COC(=O)c1nc(C)c(Oc2ccc(-n3ncn(Cc4ccccc4F)c3=O)cc2F)s1 [Example 107, methyl 5-(2-fluoro-4-(4-(2-fluorobenzyl)-5-oxo-4,5-dihydro-1H-1,2,4-triazol-1-yl)phenoxy)-4-methylthiazole-2-carboxylate] | < 100 nM |
| COC(=O)c1nc(C)c(Oc2ccc(-n3ncn(Cc4cc(F)ccc4F)c3=O)cc2F)s1 [Example 108, methyl 5-(4-(4-(2,5-difluorobenzyl)-5-oxo-4,5-dihydro-1H-1,2,4-triazol-1-yl)-2-fluorophenoxy)-4-methylthiazole-2-carboxylate] | < 100 nM |
| Cc1nc(C2(F)CC(N)C2)sc1Oc1ccc(-n2ncn(Cc3c(F)cccc3F)c2=O)cc1F (centres unmarked) [Example 109, 2-(4-((2-(3-amino-1-fluorocyclobutyl)-4-methylthiazol-5-yl)oxy)-3-fluorophenyl)-4-(2,6-difluorobenzyl)-2,4-dihydro-3H-1,2,4-triazol-3-one] | < 100 nM |
| Cc1nc(C2(F)CC(O)C2)sc1Oc1ccc(-n2ncn(Cc3c(F)cccc3F)c2=O)cc1F (centres unmarked) [Example 110, 4-(2,6-difluorobenzyl)-2-(3-fluoro-4-((2-(1-fluoro-3-hydroxycyclobutyl)-4-methylthiazol-5-yl)oxy)phenyl)-2,4-dihydro-3H-1,2,4-triazol-3-one] | < 100 nM |
| Cc1nc(C2(F)CC(OCc3ccccc3)C2)sc1Oc1ccc(-n2ncn(Cc3c(F)cccc3F)c2=O)cc1F (centres unmarked) [Example 111, 2-(4-((2-(3-(benzyloxy)-1-fluorocyclobutyl)-4-methylthiazol-5-yl)oxy)-3-fluorophenyl)-4-(2,6-difluorobenzyl)-2,4-dihydro-3H-1,2,4-triazol-3-one] | < 100 nM |
| Cc1nc(C2(O)CC(OCc3ccccc3)C2)sc1Oc1ccc(-n2ncn(Cc3c(F)cccc3F)c2=O)cc1F (centres unmarked) [Example 112, 2-(4-((2-(3-(benzyloxy)-1-hydroxycyclobutyl)-4-methylthiazol-5-yl)oxy)-3-fluorophenyl)-4-(2,6-difluorobenzyl)-2,4-dihydro-3H-1,2,4-triazol-3-one] | 100 to 1000 nM |
| Cc1nc(C2CC(C)(O)C2)sc1Oc1ccc(-n2ncn(Cc3c(F)cccc3F)c2=O)cc1F (centres unmarked) [Example 119, 4-(2,6-difluorobenzyl)-2-(3-fluoro-4-((2-(3-hydroxy-3-methylcyclobutyl)-4-methylthiazol-5-yl)oxy)phenyl)-2,4-dihydro-3H-1,2,4-triazol-3-one] | < 100 nM |
